These results are taken from patent publication US7517907B2, “Pharmaceutical/cosmetic compositions comprising a novel RARbeta receptor-activating ligand” (Galderma Research & Development, priority 2003, dated 2009).

Assay [1] deals with T1, RARalpha (Homo sapiens, UniProt P10276).
T1 sequence (P10276 183-417 limits assumed): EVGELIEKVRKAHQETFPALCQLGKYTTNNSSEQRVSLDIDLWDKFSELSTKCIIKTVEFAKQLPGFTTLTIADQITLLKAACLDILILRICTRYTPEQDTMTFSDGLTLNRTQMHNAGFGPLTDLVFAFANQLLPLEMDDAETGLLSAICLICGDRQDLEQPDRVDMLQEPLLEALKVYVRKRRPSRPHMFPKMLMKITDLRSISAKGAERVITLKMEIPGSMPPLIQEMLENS
Nature of the assay: Transactivation assay (luciferase reporter, HeLa stable transfectants), RARalpha. It is filed as cell-based. From the text: [The procedure below names another target; the source lists this target under the same test.] (§1) The compounds according to the invention have activating properties on RARbeta-type receptors. This RARbeta receptor-activating activity can in particular be measured in a transactivation assay by means of the dissocation constant Kdapp (apparent), the AC50 (concentration giving 50% of the activity of the reference molecule) and also by means of the % activation.
(§2) The activation of receptors with an agonist (activator) in HeLa cells leads to the expression of a reporter gene, luciferase, which, in the presence of a substrate, generates light. The activation of the receptors can thus be measured by quantifying the luminescence produced after incubating the cells in the presence of a reference antagonist. Activating products will displace the antagonist from its site, thus allowing activation of the receptor. The activity is measured by quantifying the increase in light produced. This measurement makes it possible to determine the activating activity of the compound according to the invention.
(§3) In this study, a constant is determined which represents the affinity of the molecule for the receptor. […]
(§4) These crossed curves make it possible to determine the AC50 values (concentration at which 50% activation is observed) for the reference ligand at various concentrations of test product. These AC50 values are used to calculate the Schild regression by plotting a straight line corresponding to the Schild equation (“quantitation in receptor pharmacology” Terry P. Kenakin, Receptors and Channels, 2001, 7, 371-385).
(§5) In the case of an agonist, an AC50 value (concentration giving 50% activity) is calculated by plotting the curve of the product at the concentration of the reference ligand that gives 80% activation. The % activation which corresponds to the maximum level of activity obtained is also measured. […]
(§6) The culture medium is removed by turning the plates over, and 100 μl of a 1:1 PBS/luciferin mixture are added to each well. After 5 minutes, the plates are read using a luminescence reader.
For orientation: A reporter such as luciferase makes a cellular process visible.

The target in assay [2] is T2, RARbeta (Homo sapiens, UniProt P10826).
T2 construct: RARbeta Kdapp; RARbeta AC50; other: maximum level of activity obtained, relative to 100% control total agonist
T2 sequence (P10826 183-417 limits assumed): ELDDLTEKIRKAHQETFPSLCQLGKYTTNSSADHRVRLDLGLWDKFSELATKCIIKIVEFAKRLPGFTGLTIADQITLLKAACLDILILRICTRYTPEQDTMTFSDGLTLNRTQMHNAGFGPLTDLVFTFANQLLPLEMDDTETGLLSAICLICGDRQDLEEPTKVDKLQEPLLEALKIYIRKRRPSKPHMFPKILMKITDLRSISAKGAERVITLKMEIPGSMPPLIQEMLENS
Nature of the assay: Transactivation assay (luciferase reporter, HeLa stable transfectants), RARbeta. It is filed as cell-based.
Excerpt: as §1, §2
(§7) In this study, a constant is determined which represents the affinity of the molecule for the receptor. Since this value can fluctuate depending on the basal activity and the expression of the receptor, it is referred to as the Kd apparent (Kdapp).
(§8) To determine this constant, “crossed curves” of the test product against a reference antagonist, otherwise referred to as reference ligand, 4-(5,5-dimethyl-8-p-tolyl-5,6-dihydronaphthalen-2-ylethynyl)benzoic acid, are realized in 96-well plates. The test product is used at 10 concentrations and the reference antagonist at 7 concentrations. In each, the cells are in contact with a concentration of the test product and with a concentration of the reference antagonist, 4-(5,5-dimethyl-8-p-tolyl-5,6-dihydronaphthalen-2-ylethynyl)benzoic acid. […]
as §4, §5, §6

For assay [3], the system named is RARbeta. The assay is described as above. It is filed as cell-based, human. To be noted: RARbeta Kdapp to RARalpha or RARgamma Kdapp.
Excerpt: as §1, §2, §7, §8, §4, §5, §6

Assay [4] concerns the target T3, RARgamma (Homo sapiens, UniProt P13631).
T3 sequence (P13631 185-419 limits assumed): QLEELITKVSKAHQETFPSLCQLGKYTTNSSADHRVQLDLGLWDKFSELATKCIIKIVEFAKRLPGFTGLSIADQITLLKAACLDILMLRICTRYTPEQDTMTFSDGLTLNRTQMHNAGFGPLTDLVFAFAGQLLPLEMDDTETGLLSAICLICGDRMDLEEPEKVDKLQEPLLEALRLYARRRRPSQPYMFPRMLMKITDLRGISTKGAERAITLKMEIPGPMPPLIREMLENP
Description: Transactivation assay (luciferase reporter, HeLa stable transfectants), RARgamma. It is filed as cell-based.
Excerpt: [The procedure below names another target; the source lists this target under the same test.] as §1, §2, §3, §4, §5, §6

The mark [5] stands for this setting: concentration giving 50% activity, at the reference ligand concentration giving 80% activation, HeLa cells.
Setting [6] is: maximum level of activity obtained, relative to 100% control total agonist.

For orientation: AC50 means the midpoint of the concentration-response curve, whichever way the signal moves. Read a high AC50 as activity only at high concentration. Turning to `CC1(C)OCC(COc2ccc(-c3ccc4cc(C(=O)O)ccc4c3)cc2C23CC4CC(CC(C4)C2)C3)O1` (stereo not shown) [Ex. 1, 6-[3-adamantan-1-yl-4-(2,2-dimethyl[1,3]dioxolan-4-ylmethoxy)phenyl]naphthalene-2-carboxylic acid], the Kd in assay [1] (apparent Kd from Schild regression, crossed curves against reference antagonist, HeLa cells, read-out: RARalpha Kdapp) was found to be 8 µM; in assay [2] (apparent Kd from Schild regression, crossed curves against reference antagonist, HeLa cells, read-out: RARbeta Kdapp), 0.06 µM; in assay [4] (apparent Kd from Schild regression, crossed curves against reference antagonist, HeLa cells, read-out: RARgamma Kdapp), 4 µM. In addition, the AC50 was 1.8 µM in assay [1] (setting [5]), 0.012 µM in assay [2] (setting [5]) and 2 µM in assay [4] (setting [5]). This molecule had an RARalpha % activation in assay [1] (setting [6]) of 20%. Also, the RARbeta % activation in assay [2] (setting [6]) is reported as 100%. Further, in assay [3], the “ratio of the Kdapp values R” value was determined as 0.015. The RARgamma % activation in assay [4] (setting [6]) came out at 40%.
